Data: paper PMC9230590, “Pharmacokinetics and Tissue Distribution of Enavogliflozin in Mice and Rats” (Pharmaceutics, 2022)
Read-outs that look alike come from different tables or passages of the source.

Key:
[1] = Tissue distribution after single or repeated oral administration (7 or 14 days) in mice; type: in vivo, ICR mice; conditions: for Kp / AUC(0-t): ICR, mouse, po, 1 mg/kg; for Kp: read-out: AUC Ratio (AUC48 h, tissue / AUC48 h, plasma); for AUC(0-t): plasma, read-out: AUC48 h; for AUC48 h: oral 1 mg/kg
Method: Thirty-five ICR mice were randomly divided into five groups (n = 7 per sampling time point) and administered with an enavogliflozin solution (1 mg/kg, once daily) for 14 days via oral gavage. Another thirty-five ICR mice were randomly divided into five groups (n = 7 per sampling time point) and administered with an enavogliflozin solution (1 mg/kg, once daily) for 7 days via oral gavage. The other thirty-five ICR mice were randomly divided into five groups (n = 7 per sampling time point) and administered with an enavogliflozin solution at a dose of 1 mg/kg via oral gavage. Blood samples (approximately 0.2 mL) were collected at 1, 2, 8, 24, and 48 h via the abdominal artery. Subsequently, whole tissues, including kidney, liver, small intestine, and large intestine, were isolated. An aliquot (30 µL) of plasma and aliquots (50 µL) of tissue homogenate samples were prepared and stored with the same procedures described above.
(§1) Concentrations of enavogliflozin in plasma and tissue homogenate samples were analyzed using an Agilent 6430 triple quadrupole liquid chromatography-mass spectrometry (LC–MS/MS) system (Agilent, Wilmington, DE, USA) following a previously published method.
(§2) The data were expressed as the means ± standard deviation for the groups. Pharmacokinetic parameters, such as the area under the plasma concentration–time curve during the period of observation (AUClast), AUC to infinite time (AUC∞), clearance (CL), and volume of distribution at steady-state (Vd,ss), the terminal half-life (t1/2), and mean residence time (MRT) were calculated using non-compartment analysis with WinNonlin software (version 5.1; Pharsights, Cary, NC, USA). The AUC ratios were calculated by dividing the AUClast of enavogliflozin in the tissue samples by the plasma AUClast values of enavogliflozin [15].

[2] = tested on: hepatocytes; design: method as in PMID 32932946; conditions: dog hepatocytes; cited from earlier work
[3] = tested on: urinary glucose excretion; design: method as in PMID 35395697; conditions: single oral administration, dose range 0.2 to 5.0 mg, healthy male volunteers; cited from earlier work
[4] = tested on: SGLT2; design: method as in PMID 32183468; conditions: cited from earlier work
[5] = Pharmacokinetics after intravenous injection in mice; type: in vivo, ICR mice; conditions: for AUC(0-inf) / AUC(0-t) / half-life / MRT / clearance / Vd: ICR, mouse; for AUC(0-inf) / AUC(0-t) / half-life / MRT / clearance / Vd / Co: plasma; for AUC∞/D / Co/D: dose normalized
Method: Fifty-four ICR mice were randomly divided into nine groups (n = 6 per group; Table 1) and intravenously administered an enavogliflozin solution at doses of 0.3, 1, and 3 mg/kg. The drug was dissolved in a mixture of 10% DMSO and 90% saline and injected via the tail vein. Before blood sampling, mice were anesthetized for 5 min using 2% isoflurane in a vaporizer with an oxygen flow of 0.8 L/min. Blood sampling used a sparse sampling method via the right or left retro-orbital vein using heparinized capillary tubes (Heinz Herenz, Hamburg, Germany). Final blood was collected from the abdominal artery using a heparin-treated 1 mL syringe (Jung Lim Co. Ltd., Choong-Buk, Korea) under isoflurane anesthesia (Table 1). Blood samples were collected at 0, 0.083, 0.25, 0.5, 1, 2, 4, 8, and 24 h and centrifuged at 12,000× g for 1 min to separate plasma. An aliquot (30 µL) of each plasma sample was stored at −80 °C until enavogliflozin analysis.
as §1, §2

[6] = Pharmacokinetics after oral administration in rats; type: in vivo, Sprague Dawley (SD) rats; conditions: for AUC∞/D / Cmax/D: dose normalized; for Cmax/D: in (ng/mL)/(mg/kg); for AUC(0-t) / AUC(0-inf) / Cmax / half-life / MRT / Tmax / bioavailability: rat, plasma; for bioavailability: po
Method: Rats were fasted with water ad libitum for at least 12 h before the oral administration of enavogliflozin. Eighteen rats were randomly divided into three groups (n = 6 per each group) and administered the drug dissolved in a mixture of 10% DMSO and 90% saline at doses of 0.3, 1, and 3 mg/kg by oral gavage. Blood samples were collected at 0, 0.083, 0.25, 0.5, 1, 2, 4, 6, 8, and 24 h with the same procedures described above.
as §1, §2

OC[C@H]1O[C@@H](c2cc(Cc3ccc(C4CC4)cc3)c(Cl)c3c2CCO3)[C@H](O)[C@@H](O)[C@@H]1O [enavogliflozin, (2S,3R,4R,5S,6R)-2-(7-chloro-6-(4-cyclopropylbenzyl) -2,3-dihydrobenzofuran-4-yl)-6-(hydroxymethyl)tetrahydro-2H-pyran-3,4,5-triol]
Kp ([1]; kidney, repeated dose for 7 days, kidney): 37.6 ± 5.9
Kp ([1]; kidney, repeated dose for 14 days, kidney): 38.4 ± 18
Kp ([1]; kidney, single dose, kidney): 38.7 ± 6.3
Kp ([1]; large intestine, repeated dose for 7 days, large intestine): 2.33 ± 0.34
Kp ([1]; large intestine, repeated dose for 14 days, large intestine): 2.2 ± 0.71
Kp ([1]; large intestine, single dose, large intestine): 3.24 ± 1.1
Kp ([1]; liver, repeated dose for 7 days, liver): 3.77 ± 0.73
Kp ([1]; liver, repeated dose for 14 days, liver): 4.37 ± 2.6
Kp ([1]; liver, single dose, liver): 4.85 ± 0.64
AUC(0-t) ([1]; repeated dose for 7 days): 2090 ± 290 ng·h/mL
AUC(0-t) ([1]; repeated dose for 14 days): 2360 ± 690 ng·h/mL
AUC(0-t) ([1]; single dose): 2130 ± 270 ng·h/mL
Kp ([1]; small intestine, repeated dose for 7 days, small intestine): 4.5 ± 0.89
Kp ([1]; small intestine, repeated dose for 14 days, small intestine): 3.4 ± 1.5
Kp ([1]; small intestine, single dose, small intestine): 3.47 ± 0.49
AUC48 h ([1]; repeated dose for 7 days, kidney): 77.2 ± 6.3 µg·h/g
AUC48 h ([1]; repeated dose for 7 days, large intestine): 4.88 ± 1.1 µg·h/g
AUC48 h ([1]; repeated dose for 7 days, liver): 7.89 ± 2.1 µg·h/g
AUC48 h ([1]; repeated dose for 7 days, small intestine): 9.39 ± 2.1 µg·h/g
AUC48 h ([1]; repeated dose for 14 days, kidney): 81.6 ± 4.8 µg·h/g
AUC48 h ([1]; repeated dose for 14 days, large intestine): 4.90 ± 1.5 µg·h/g
AUC48 h ([1]; repeated dose for 14 days, liver): 8.85 ± 1.8 µg·h/g
AUC48 h ([1]; repeated dose for 14 days, small intestine): 7.46 ± 2.3 µg·h/g
AUC48 h ([1]; single dose, kidney): 80.9 ± 5.1 µg·h/g
AUC48 h ([1]; single dose, large intestine): 5.68 ± 1.6 µg·h/g
AUC48 h ([1]; single dose, liver): 10.2 ± 1.0 µg·h/g
AUC48 h ([1]; single dose, small intestine): 7.30 ± 0.77 µg·h/g
In vitro hepatic clearance [2]: 17.9 mL/min/kg
urinary glucose excretion [3]: dose-dependent increase
IC50 [4]: 0.8 ± 0.3 nM
mode of SGLT2 inhibition ([4]; restrained recovery of SGLT2 activity after removal): reversibly and competitively inhibited SGLT2
difference in IC50 values for SGLT2 versus SGLT1 ([4]; selectivity SGLT2 over SGLT1): 667 fold
AUC(0-inf) ([5]; IV 0.3 mg/kg): 512 ± 30.7 ng·h/mL
AUC(0-t) ([5]; IV 0.3 mg/kg): 479 ± 33.6 ng·h/mL
half-life ([5]; IV 0.3 mg/kg): 6 ± 1.3 h
AUC(0-inf) ([5]; IV 1 mg/kg): 1630 ± 336 ng·h/mL
AUC(0-t) ([5]; IV 1 mg/kg): 1510 ± 282 ng·h/mL
half-life ([5]; IV 1 mg/kg): 6.5 ± 1.4 h
AUC(0-inf) ([5]; IV 3 mg/kg): 5080 ± 1060 ng·h/mL
AUC(0-t) ([5]; IV 3 mg/kg): 4660 ± 998 ng·h/mL
half-life ([5]; IV 3 mg/kg): 6.6 ± 0.5 h
MRT ([5]; IV 0.3 mg/kg): 5.2 ± 0.4 h
clearance ([5]; IV 0.3 mg/kg, read-out: CL): 9.8 ± 0.6 mL/min/kg
Vd ([5]; IV 0.3 mg/kg, read-out: Vd,ss): 3.1 ± 0.3 L/kg
MRT ([5]; IV 1 mg/kg): 4.9 ± 0.5 h
clearance ([5]; IV 1 mg/kg, read-out: CL): 10.7 ± 2.5 mL/min/kg
Vd ([5]; IV 1 mg/kg, read-out: Vd,ss): 3.1 ± 0.6 L/kg
MRT ([5]; IV 3 mg/kg): 5.2 ± 0.8 h
clearance ([5]; IV 3 mg/kg, read-out: CL): 10.2 ± 2.1 mL/min/kg
Vd ([5]; IV 3 mg/kg, read-out: Vd,ss): 3.2 ± 0.5 L/kg
clearance ([5]; IV 0.3–3 mg/kg, all doses together, read-out: Systemic clearance): 10.1 ± 1.59 mL/min/kg
Vd ([5]; IV, range over doses 0.3–3 mg/kg, read-out: steady-state volume of distribution (Vd,ss)): 3.1 to 3.2 L/kg
AUC∞/D ([5]; IV 0.3 mg/kg): 1706.8 ± 102.3
Co/D ([5]; IV 0.3 mg/kg): 416.8 ± 31.3
Co ([5]; IV 0.3 mg/kg): 125.0 ± 9.4 ng/mL
AUC∞/D ([5]; IV 1 mg/kg): 1626.7 ± 335.6
Co/D ([5]; IV 1 mg/kg): 408.6 ± 103.2
Co ([5]; IV 1 mg/kg): 408.6 ± 103.2 ng/mL
AUC∞/D ([5]; IV 3 mg/kg): 1694.3 ± 354.5
Co/D ([5]; IV 3 mg/kg): 424.7 ± 62.2
Co ([5]; IV 3 mg/kg): 1274.1 ± 186.6 ng/mL
AUC∞/D ([6]; PO 0.3 mg/kg): 1757.6 ± 643.4
Cmax/D ([6]; PO 0.3 mg/kg): 171.2 ± 49.9
AUC∞/D ([6]; PO 1 mg/kg): 1649.3 ± 483.4
Cmax/D ([6]; PO 1 mg/kg): 183.0 ± 95.6
AUC∞/D ([6]; PO 3 mg/kg): 1385.4 ± 361.8
Cmax/D ([6]; PO 3 mg/kg): 100.2 ± 36.1
AUC(0-t) ([6]; Sprague Dawley, PO 0.3 mg/kg): 489 ± 192 ng·h/mL
AUC(0-t) ([6]; Sprague Dawley, PO 1 mg/kg): 1350 ± 565 ng·h/mL
AUC(0-inf) ([6]; Sprague-Dawley, PO 0.3 mg/kg): 527 ± 193 ng·h/mL
Cmax ([6]; Sprague-Dawley, PO 0.3 mg/kg): 51.3 ± 15 ng/mL
half-life ([6]; Sprague-Dawley, PO 0.3 mg/kg): 6.3 ± 2.3 h
AUC(0-inf) ([6]; Sprague-Dawley, PO 1 mg/kg): 1650 ± 483 ng·h/mL
Cmax ([6]; Sprague-Dawley, PO 1 mg/kg): 183 ± 95.6 ng/mL
half-life ([6]; Sprague-Dawley, PO 1 mg/kg): 6.9 ± 2.1 h
AUC(0-inf) ([6]; Sprague-Dawley, PO 3 mg/kg): 4160 ± 1090 ng·h/mL
AUC(0-t) ([6]; Sprague-Dawley, PO 3 mg/kg): 3250 ± 572 ng·h/mL
Cmax ([6]; Sprague-Dawley, PO 3 mg/kg): 301 ± 108 ng/mL
half-life ([6]; Sprague-Dawley, PO 3 mg/kg): 10.3 ± 7.5 h
MRT ([6]; Sprague-Dawley, PO 0.3 mg/kg): 8.5 ± 3.2 h
Tmax ([6]; Sprague-Dawley, PO 0.3 mg/kg): 2.5 ± 2.4 h
MRT ([6]; Sprague-Dawley, PO 1 mg/kg): 9.9 ± 3.6 h
Tmax ([6]; Sprague-Dawley, PO 1 mg/kg): 2.5 ± 2.5 h
MRT ([6]; Sprague-Dawley, PO 3 mg/kg): 14.9 ± 10.6 h
Tmax ([6]; Sprague-Dawley, PO 3 mg/kg): 2.9 ± 2.1 h
bioavailability ([6]; Sprague-Dawley, 0.3 mg/kg, PO 0.3 mg/kg, AUC∞,PO / AUC∞,IV, read-out: BA (absolute bioavailability)): 62.1%
bioavailability ([6]; Sprague-Dawley, 1 mg/kg, PO 1 mg/kg, AUC∞,PO / AUC∞,IV, read-out: BA (absolute bioavailability)): 58.9%
bioavailability ([6]; Sprague-Dawley, 3 mg/kg, PO 3 mg/kg, AUC∞,PO / AUC∞,IV, read-out: BA (absolute bioavailability)): 56.3%
bioavailability ([6]; Sprague-Dawley, 3 mg/kg, range over doses 0.3, 1 and 3 mg/kg, read-out: Oral bioavailability): 56.3 to 62.1%
